The test addresses human PCSK9 (Homo sapiens, UniProt Q8NBP7). Briefly: PCSK9 ligand binding TR-FRET assay (interference with binding of human PCSK9 to human LDLR). The settings on record: for Max % inhibition: PCSK9 FRET assay, efficacy (Amax), 100% = 1 uM unlabeled human PCSK9, 0% = DMSO; for IC50: TR-FRET, human PCSK9 Alexa Fluor 647 / human LDLR extracellular domain-Europium Kryptate, read-out: PCSK9 FRET Assay IC50. The method, boiled down:
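Threefold compound dilutions were pre-incubated 30 min with PCSK9, after which 4 nM Europium Kryptate-tagged human LDLR ectodomain was added for a further 2 h.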
In general terms: Time-resolved FRET reads energy transfer from a long-lived donor to a nearby acceptor.

human PCSK9, sequence (Q8NBP7 153-692): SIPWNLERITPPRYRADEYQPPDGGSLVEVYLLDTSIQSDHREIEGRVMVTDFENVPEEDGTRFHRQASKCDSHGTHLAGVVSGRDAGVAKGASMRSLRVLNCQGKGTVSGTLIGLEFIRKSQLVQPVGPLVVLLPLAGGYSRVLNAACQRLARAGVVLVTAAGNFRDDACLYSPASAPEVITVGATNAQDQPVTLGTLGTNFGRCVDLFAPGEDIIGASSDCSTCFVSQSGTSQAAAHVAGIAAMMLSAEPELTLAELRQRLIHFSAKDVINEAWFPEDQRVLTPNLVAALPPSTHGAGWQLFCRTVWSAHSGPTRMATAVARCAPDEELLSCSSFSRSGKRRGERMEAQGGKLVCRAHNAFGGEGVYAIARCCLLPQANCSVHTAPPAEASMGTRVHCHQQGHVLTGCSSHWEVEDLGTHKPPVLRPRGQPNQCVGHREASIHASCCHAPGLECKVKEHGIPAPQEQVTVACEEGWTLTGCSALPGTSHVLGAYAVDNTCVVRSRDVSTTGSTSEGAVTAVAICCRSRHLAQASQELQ
human PCSK9, sequence (Q8NBP7 31-152 partner limits assumed): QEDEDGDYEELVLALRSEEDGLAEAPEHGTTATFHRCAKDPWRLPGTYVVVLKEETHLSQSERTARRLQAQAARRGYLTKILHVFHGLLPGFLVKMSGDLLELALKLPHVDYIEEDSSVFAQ

What is called IC50 is the concentration at which inhibition is half-maximal. As to `COC[C@@H]1NC(=O)[C@H](C)N(Cc2ccc(Cl)cc2Oc2ccc(-c3cnc(C4=CCOCC4)n3C)cc2)C(=O)C[C@@H](Cc2ccccc2)C(=O)N(C)[C@@H](C)CNC(=O)C[C@H](Cc2ccc(Cl)cc2)N(C)C1=O` [Compound 271, (2S,5S,8S,13S,16R)-16-benzyl-1-(4-chloro-2-(4-(2-(3,6-dihydro-2H-pyran-4-yl)-1-methyl-1H-imidazol-5-yl)phenoxy)benzyl)-8-(4-chlorobenzyl)-5-(methoxymethyl)-2,7,13,14-tetramethyl-1,4,7,11,14-pentaazacyclooctadecane-3,6,10,15,18-pentaone], the Max % inhibition came out at 84.13% and the IC50 is 6.9 nM.

As to `COC[C@@H]1NC(=O)[C@H](C)N(Cc2c(F)cc(F)cc2Oc2ccc(-c3cnc(CN(C)C)n3C)cc2)C(=O)C[C@@H](Cc2ccccc2)C(=O)N(C)[C@H]2CCCC[C@@H]2NC(=O)C[C@H](Cc2ccc(Cl)cc2)N(C)C1=O` [Compound 208, (4S,7S,10S,14R,16aS,20aS)-14-benzyl-4-(4-chlorobenzyl)-11-(2-(4-(2-((dimethylamino)methyl)-1-methyl-1H-imidazol-5-yl)phenoxy)-4,6-difluorobenzyl)-7-(methoxymethyl)-5,10,16-trimethylhexadecahydrobenzo[l][1,4,7,11,14]pentaazacyclooctadecine-2,6,9,12,15(3H)-pentaone], the Max % inhibition amounted to 87.45% and the IC50 was 2.7 nM.

Regarding `COC[C@@H]1NC(=O)[C@H](C)N(Cc2ccc(Cl)cc2Oc2ccc(-c3cnc(CN(C)C)n3C)cc2)C(=O)C[C@@H](Cc2ccccc2)C(=O)N(C)[C@@H](CO)CNC(=O)C[C@H](Cc2ccc(Cl)cc2)N(C)C1=O` [Compound 235, (2S,5S,8S,13R,16R)-16-benzyl-1-(4-chloro-2-(4-(2-((dimethylamino)methyl)-1-methyl-1H-imidazol-5-yl)phenoxy)benzyl)-8-(4-chlorobenzyl)-13-(hydroxymethyl)-5-(methoxymethyl)-2,7,14-trimethyl-1,4,7,11,14-pentaazacyclooctadecane-3,6,10,15,18-pentaone], the Max % inhibition was determined as 100.56% and the IC50 came to 11.1 nM.

As for `CCC(O)c1ncc(-c2ccc(Oc3cc(Cl)ccc3CN3C(=O)C[C@@H](Cc4ccccc4)C(=O)N(C)[C@@H](C)CNC(=O)C[C@H](Cc4ccc(Cl)cc4)N(C)C(=O)[C@H](COC)NC(=O)[C@@H]3C)cc2)n1C` (stereo partly drawn) [Compound 151, (2S,5S,8S,13S,16R)-16-benzyl-1-(4-chloro-2-(4-(2-(1-hydroxypropyl)-1-methyl-1H-imidazol-5-yl)phenoxy)benzyl)-8-(4-chlorobenzyl)-5-(methoxymethyl)-2,7,13,14-tetramethyl-1,4,7,11,14-pentaazacyclooctadecane-3,6,10,15,18-pentaone], the Max % inhibition is 64.23% and the IC50 is 8.8 nM.

Consider `COC[C@@H]1NC(=O)[C@H](CCF)N(Cc2ccc(Cl)cc2Oc2ccc(-c3cnc(CN4CCCC4)n3C)cc2)C(=O)C[C@@H](Cc2ccccc2)C(=O)N(C)[C@@H](C)CNC(=O)C[C@H](Cc2ccc(Cl)cc2)N(C)C1=O` [Compound 54, (2S,5S,8S,13S,16R)-16-benzyl-1-(4-chloro-2-(4-(1-methyl-2-(pyrrolidin-1-ylmethyl)-1H-imidazol-5-yl)phenoxy)benzyl)-8-(4-chlorobenzyl)-2-(2-fluoroethyl)-5-(methoxymethyl)-7,13,14-trimethyl-1,4,7,11,14-pentaazacyclooctadecane-3,6,10,15,18-pentaone], for which the Max % inhibition was determined as 92.54% and the IC50 came out at 4.6 nM.

Turning to `CC[C@H]1C(=O)N[C@@H](COC)C(=O)N(C)[C@@H](Cc2ccc(Cl)cc2F)CC(=O)NC[C@H](C)N(C)C(=O)[C@H](Cc2ccccc2)CC(=O)N1Cc1ccc(Cl)cc1Oc1ccc(-c2cnc(CN(C)C)n2C)cc1` [Compound 248, (2S,5S,8S,13S,16R)-16-benzyl-1-(4-chloro-2-(4-(2-((dimethylamino)methyl)-1-methyl-1H-imidazol-5-yl)phenoxy)benzyl)-8-(4-chloro-2-fluorobenzyl)-2-ethyl-5-(methoxymethyl)-7,13,14-trimethyl-1,4,7,11,14-pentaazacyclooctadecane-3,6,10,15,18-pentaone], the Max % inhibition is reported as 106.74% and the concentration for half-maximal inhibition (IC50) is 2.2 nM.

Consider `COC[C@@H]1NC(=O)[C@H](C)N(Cc2ccc(Cl)cc2Oc2ccc(-n3cc(CN4CCCC4)nn3)cc2)C(=O)C[C@@H](Cc2ccccc2)C(=O)N(C)[C@@H](C)CNC(=O)C[C@H](Cc2ccc(Cl)cc2)N(C)C1=O` [Compound 127, (2S,5S,8S,13S,16R)-16-benzyl-1-(4-chloro-2-(4-(4-(pyrrolidin-1-ylmethyl)-1H-1,2,3-triazol-1-yl)phenoxy)benzyl)-8-(4-chlorobenzyl)-5-(methoxymethyl)-2,7,13,14-tetramethyl-1,4,7,11,14-pentaazacyclooctadecane-3,6,10,15,18-pentaone], for which the Max % inhibition stood at 55.01% and the IC50 was found to be 7.8 nM.

Regarding `COC[C@@H]1NC(=O)[C@H](C)N(Cc2ccc(Cl)cc2Oc2ccc(-c3cnc(CN(C)C)n3C)cc2)C(=O)C[C@@H](Cc2cccnc2)C(=O)N(C)[C@H]2CCCC[C@@H]2NC(=O)C[C@H](Cc2ccc(Cl)cc2)N(C)C1=O` [Compound 280, (4S,7S,10S,14R,16aS,20aS)-11-(4-chloro-2-(4-(2-((dimethylamino)methyl)-1-methyl-1H-imidazol-5-yl)phenoxy)benzyl)-4-(4-chlorobenzyl)-7-(methoxymethyl)-5,10,16-trimethyl-14-(pyridin-3-ylmethyl)hexadecahydrobenzo[l][1,4,7,11,14]pentaazacyclooctadecine-2,6,9,12,15(3H)-pentaone], the Max % inhibition was 100.09% and the IC50 was found to be 0.6 nM.

In the case of `COC[C@@H]1NC(=O)[C@H](C)N(Cc2ccc(Cl)cc2Oc2ccc(-c3cnc4n3CCN(C(=O)C3CCNC3)C4)cc2)C(=O)C[C@@H](Cc2ccccc2)C(=O)N(C)[C@@H](C)CNC(=O)C[C@H](Cc2ccc(Cl)cc2)N(C)C1=O.O=C(O)C(F)(F)F` (stereo partly drawn) [Compound 124, (2S,5S,8S,13S,16R)-16-benzyl-1-(4-chloro-2-(4-(7-(pyrrolidine-3-carbonyl)-5,6,7,8-tetrahydroimidazo[1,2-a]pyrazin-3-yl)phenoxy)benzyl)-8-(4-chlorobenzyl)-5-(methoxymethyl)-2,7,13,14-tetramethyl-1,4,7,11,14-pentaazacyclooctadecane-3,6,10,15,18-pentaone trifluoroacetate], the Max % inhibition stood at 100.50% and the IC50 came out at 3.8 nM.

With `COC[C@@H]1NC(=O)[C@H](C)N(Cc2c(OCC(F)(F)F)cc(Cl)cc2Oc2ccc(-c3cnc(CN4CCCC4)n3C)cc2)C(=O)C[C@@H](C)C(=O)N(C)[C@@H](C)CNC(=O)C[C@H](Cc2ccc(Cl)cc2)N(C)C1=O` [Compound 7, (2S,5S,8S,13S,16R)-1-(4-chloro-2-(4-(1-methyl-2-(pyrrolidin-1-ylmethyl)-1H-imidazol-5-yl)phenoxy)-6-(2,2,2-trifluoroethoxy)benzyl)-8-(4-chlorobenzyl)-5-(methoxymethyl)-2,7,13,14,16-pentamethyl-1,4,7,11,14-pentaazacyclooctadecane-3,6,10,15,18-pentaone], the Max % inhibition came out at 93.00% and the IC50 turned out to be 9.9 nM.

On to `COC[C@@H]1NC(=O)[C@H](C)N(Cc2ccc(Cl)cc2Oc2ccc(-c3cnc(CN4CCCC4)n3C)cc2)C(=O)C[C@@H](Cc2ccccc2)C(=O)N(C)[C@H]2CCCC[C@@H]2NC(=O)C[C@H](Cc2ccc(Cl)cc2)N(C)C1=O` [Compound 203, (4S,7S,10S,14R,16aS,20aS)-14-benzyl-11-(4-chloro-2-(4-(1-methyl-2-(pyrrolidin-1-ylmethyl)-1H-imidazol-5-yl)phenoxy)benzyl)-4-(4-chlorobenzyl)-7-(methoxymethyl)-5,10,16-trimethylhexadecahydrobenzo[l][1,4,7,11,14]pentaazacyclooctadecine-2,6,9,12,15(3H)-pentaone], for which the Max % inhibition is recorded as 90.79% and the concentration for half-maximal inhibition (IC50) was 2 nM.

With `COC[C@@H]1NC(=O)[C@H](C)N(Cc2ccc(Cl)cc2Oc2ccc(-c3cnc(CN(C)C)n3C)cc2)C(=O)C[C@@H](Cn2cccn2)C(=O)N(C)[C@H]2CCCC[C@@H]2NC(=O)C[C@H](Cc2ccc(Cl)cc2)N(C)C1=O` [Compound 253, (4S,7S,10S,16aS,20aS)-14-((1H-pyrazol-1-yl)methyl)-11-(4-chloro-2-(4-(2-((dimethylamino)methyl)-1-methyl-1H-imidazol-5-yl)phenoxy)benzyl)-4-(4-chlorobenzyl)-7-(methoxymethyl)-5,10,16-trimethylhexadecahydrobenzo[l][1,4,7,11,14]pentaazacyclooctadecine-2,6,9,12,15(3H)-pentaone], the Max % inhibition is given as 98.40% and the IC50 amounted to 1.5 nM.

For the molecule `Cc1c(CN2CCCC2)ncn1-c1ccc(Oc2cc(Cl)ccc2CN2C(=O)C[C@@H](Cc3ccccc3)C(=O)N(C)[C@H]3CCCC[C@@H]3NC(=O)C[C@H](Cc3ccc(Cl)cc3)N(C)C(=O)[C@H](CO)NC(=O)[C@@H]2C)cc1` [Compound 260, (4S,7S,10S,14R,16aS,20aS)-14-benzyl-11-(4-chloro-2-(4-(5-methyl-4-(pyrrolidin-1-ylmethyl)-1H-imidazol-1-yl)phenoxy)benzyl)-4-(4-chlorobenzyl)-7-(hydroxymethyl)-5,10,16-trimethylhexadecahydrobenzo[l][1,4,7,11,14]pentaazacyclooctadecine-2,6,9,12,15(3H)-pentaone], the Max % inhibition is 109.05% and the IC50 came out at 2.1 nM.

`CCNC(=O)c1ncn(-c2ccc(Oc3cc(Cl)ccc3CN3C(=O)C[C@@H](Cc4ccccc4)C(=O)N(C)[C@@H](C)CNC(=O)C[C@H](Cc4ccc(Cl)cc4)N(C)C(=O)[C@H](COC)NC(=O)[C@@H]3C)cc2)c1C` [Compound 244, 1-(4-(2-(((2S,5S,8S,13S,16R)-16-benzyl-8-(4-chlorobenzyl)-5-(methoxymethyl)-2,7,13,14-tetramethyl-3,6,10,15,18-pentaoxo-1,4,7,11,14-pentaazacyclooctadecan-1-yl)methyl)-5-chlorophenoxy)phenyl)-N-ethyl-5-methyl-1H-imidazole-4-carboxamide]: the Max % inhibition was 80.79% and the IC50 stood at 22.9 nM.

(Values after patent publication US20230089867A1, “CYCLIC PENTAMER COMPOUNDS AS PROPROTEIN CONVERTASE SUBTILISIN/KEXIN TYPE 9 (PCSK9) INHIBITORS FOR THE TREATMENT OF METABOLIC DISORDER” (Novartis AG, priority 2018, published 2023).)
